≈ marks a conversion by molar mass, not a printed value.
How the values were obtained:
[1] = test system: Candida albicans (MY 1055); assay type: cell-based; conditions: MY 1055, 24 h
Procedure: (§1) The compounds of the present invention are active against many fungi and particularly against Candida species. The antifungal properties may be illustrated with the minimum fungicidal concentration (MFC) determination against certain Candida organisms in a microbroth dilution assay carded out in a Yeast Nitrogen Base (DIFCO) medium with 1% dextrose (YNBD).
(§2) In a representative assay, compounds were solubilized in 100% dimethyl sulfoxide (DMSO) at an initial concentration of 5 mg/ml. Once dissolved, the drug stock was brought to a concentration of 512 μg/ml by dilution in water such that the final DMSO concentration was about 10 percent. The solution was then dispensed via a multichannel pipetter into the first column of a 96-well plate (each well containing 0.075 ml of YNBD), resulting in a drug concentration of 256 μg/ml. Compounds in the first column were diluted 2-fold across the rows yielding final drug concentration ranging from 256 μg/ml to 0.12 μg/ml.
(§3) Four-hour broth cultures of organisms to be tested were adjusted using a spectrophotometer at 600 nm to equal a 0.5 McFarland Standard. This suspension was diluted 1:100 in YNBD to yield a cell concentration of 1-5×10^4 colony forming units (CFU)/ml. Aliquots of the suspension (0.075 ml) were inoculated into each well of the microtiter plate resulting in a final cell inoculum of 5-25×10^3 CFU/ml and final drug concentrations ranging from 128 μg/ml to 0.06 μg/ml. Each assay included one row for drug-free control wells and one row for cell-free control wells.
(§4) After 24 hours of incubation, the microtiter plates were shaken gently on a shaker to resuspend the cells. The MIC-2000 inoculator was used to transfer a 1.5 microliter sample from each well of the 96-well microtiter plate to a single reservoir inoculum plate containing Sabouraud dextrose agar (SDA). The inoculated SDA plates were incubated for 24 hours at 35° C. and then read for minimum fungicidal concentration (MFC). MFC is defined as the lowest concentration of drug showing no growth or less than 4 colonies per spot. […]

[2] = test system: Candida tropicalis (MY 1012); assay type: cell-based; conditions: MY 1012, 24 h
Procedure: as §1, §2, §3, §4

[3] = test system: Candida parapsilosis (MY 1010); assay type: cell-based; conditions: MY 1010, 24 h
Procedure: as §1, §2, §3, §4

Candida albicans MY 1055 = test: In vivo effectiveness: kidney CFU in mice infected I.V. with Candida albicans; conditions: 0.07 mg/kg i.p. twice daily for four consecutive days; female DBA/2 mice; CFU per gram of kidneys after seven days
Procedure: The in vivo effectiveness of the compounds against fungi may be seen in the following assay.
Growth from an overnight SDA culture of Candida albicans MY 1055 was suspended in sterile saline and the cell concentration determined by hemacytometer count and the cell suspension adjusted to 3.75×10^5 cells/ml. Then 0.2 milliliter of this suspension was administered I.V. in the tail vein of mice so that the final inoculum is 7.5×10^4 cells/mouse.
The assay was then carried out by administering aqueous solutions of Compound I at various concentrations intraperitoneally (I.P.), twice daily (b.i.d.) for four consecutive days to 18 to 20 gram female DB A/2 mice, which previously had been infected with Candida albicans (MY 1055) in the manner described above. Distilled water was administered I.P. to C. albicans challenged mice as controls. After seven days, the mice were sacrificed by carbon dioxide gas, paired kidneys were removed aseptically and placed in sterile polyethylene bags containing 5 milliliters of sterile saline. The kidneys were homogenized in the bags, serially diluted in sterile saline and aliquots spread on the surface of SDA plates. The plates were incubated at 35° C. for 48 hours and yeast colonies enumerated for determination of colony forming units (CFU) per gram of kidneys. […]

CCC(C)CC(C)CCCCCCCCC(=O)N[C@H]1C[C@@H](O)[C@@H](NC(=O)[C@@H](N)CN)NC(=O)[C@@H]2[C@@H](O)CCN2C(=O)[C@H]([C@H](O)CCN)NC(=O)[C@H]([C@H](O)[C@@H](O)c2ccc(O)cc2)NC(=O)[C@@H]2C[C@@H](O)CN2C(=O)[C@H]([C@@H](C)O)NC1=O (stereo partly shown) [Compound I]
minimum fungicidal concentration (MFC) [1]: 1 µg/mL (≈ 0.88 µM)
minimum fungicidal concentration (MFC) [2]: 1 µg/mL (≈ 0.88 µM)
minimum fungicidal concentration (MFC) [3]: 0.5 µg/mL (≈ 0.44 µM)
reduction of recoverable Candida CFUs (Candida albicans MY 1055): greater than 99%
